Laboratory results: paper PMC4095797 (Proteins, 2013)

Assays:
Format in all cases: binding
[1] = biological target: T1, RPD1520 (Rhodopseudomonas pseudopalustris, UniProt A0A1H8UI63); assay: fluorescence thermal shift; settings: 10 μM protein, 1000 μM ligand; HEPES pH 7.5
[2] = biological target: T1, RPD1520; assay: intrinsic tryptophan fluorescence quenching; settings: excitation 275 nm; single-site fit; unit of KD printed as M^-1 (M meant)
[3] = biological target: BLR7848 (Bradyrhizobium diazoefficiens, UniProt Q89CE9); assay: fluorescence thermal shift; settings: 10 μM protein, 1000 μM ligand; HEPES pH 7.5
[4] = biological target: RPD1889 (Rhodopseudomonas palustris, UniProt Q139W5); assay: fluorescence thermal shift; settings: 10 μM protein, 1000 μM ligand; HEPES pH 7.5; pre-bound ligand present
[5] = biological target: RPA1789 (Rhodopseudomonas palustris, UniProt Q6N8W4); assay: X-ray crystal structure; settings: co-crystallisation; SeMet protein; 1.60 Å
[6] = biological target: RPB3575 (Rhodopseudomonas palustris, UniProt Q2IU40); assay: X-ray crystal structure; settings: co-crystallisation; SeMet protein; 1.70 Å

O=C(O)CCc1ccccc1 [hydrocinnamic acid] was tested, and the dTm [1] was “large Tm shifts when phenylacetic acid or hydrocinnamic acid were included”.

In the case of O=C(O)C(=O)c1ccccc1 [BZF, benzoylformic acid], the KD [2] is reported as 1.50 × 10^-4 ± 0.11 M^-1.

O=C(O)/C=C/c1ccc(O)cc1 [COU, p-coumaric acid] was tested, and the dTm [3] was “(p- coumaric acid, caffeic acid) produce the maximal observed thermal shifts”, the dTm [4] was “(p- coumaric acid, caffeic acid) produce the maximal observed thermal shifts” and the X-ray crystal structure [5] was “Structures for RPA1789 and RPB3575 proteins in complex with p-coumaric acid (COU, 4-hydroxycinammic acid)”. The X-ray crystal structure [6] was “The structure of RPB3575 with p-coumaric acid (COU)”.

In the case of O=C(O)/C=C/c1ccc(O)c(O)c1 [CAF, caffeic acid], the dTm [3] is reported as “(p- coumaric acid, caffeic acid) produce the maximal observed thermal shifts” and the dTm [4] is reported as “(p- coumaric acid, caffeic acid) produce the maximal observed thermal shifts”.

With O=C(O)Cc1ccccc1 [PAA, phenylacetic acid] the dTm [1] was “large Tm shifts when phenylacetic acid or hydrocinnamic acid were included”.
